Assay results as given in patent publication US20160089321A1, “ANTIPERSPIRANT COMPOSITIONS” (Johnson & Johnson Consumer Inc., priority 2014, published 2016).

Experiments:
[1] = Turbidity measurement caused by gel polymerization in alkaline pH (turbidimeter); format: physicochemical; conditions: for Potential to gel polymerize in an alkaline environment: summary of Table 1
Protocol: In this test, a Hach model 2100 lab turbidimeter was used. One solution containing sodium hydroxide at pH 8.5 was prepared and each compound was tested at 10% concentration after mixing. […] The insoluble gel formed should act as an obstruction at the orifice of the sweat gland, reducing the flow of axillary perspiration.

[2] = target: T1, Bovine serum albumin (BSA) (Bos taurus, UniProt P02769); test: In vitro active-protein interaction: BSA precipitation by the Bradford method; format: biochemical; conditions: for Precipitation (BSA): screening test, 10% active solution; for Precipitation (BSA) / % BSA Precipitation: buffer pH 4.9; for % BSA Precipitation: dose-response assay
T1 construct: add 4 g of albumin (available from Sigma-Aldrich) from bovine serum (BSA) to 2000 mL of buffer solution; purchased Sigma-Aldrich A7906; host or cells: bovine serum (natural source)
T1 sequence (P02769 25-607): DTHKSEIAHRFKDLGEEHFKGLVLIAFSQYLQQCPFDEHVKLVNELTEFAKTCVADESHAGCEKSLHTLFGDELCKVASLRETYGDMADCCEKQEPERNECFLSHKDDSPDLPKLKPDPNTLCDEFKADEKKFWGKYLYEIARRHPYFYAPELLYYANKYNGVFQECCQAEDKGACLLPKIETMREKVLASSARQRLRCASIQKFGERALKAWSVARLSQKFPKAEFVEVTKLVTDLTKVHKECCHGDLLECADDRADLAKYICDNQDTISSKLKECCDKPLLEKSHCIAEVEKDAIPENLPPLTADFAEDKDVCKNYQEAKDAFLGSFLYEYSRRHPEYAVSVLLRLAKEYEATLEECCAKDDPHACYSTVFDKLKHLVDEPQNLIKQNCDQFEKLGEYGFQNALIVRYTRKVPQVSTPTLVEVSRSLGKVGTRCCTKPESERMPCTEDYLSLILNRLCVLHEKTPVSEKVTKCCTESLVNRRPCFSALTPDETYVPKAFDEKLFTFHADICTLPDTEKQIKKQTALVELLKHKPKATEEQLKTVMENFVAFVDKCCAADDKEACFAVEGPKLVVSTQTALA
Protocol: Method 2: In Vitro Study to Evaluate Active-Protein Interaction
Bovine serum albumin (BSA) was used as the reference protein to generate the calibration curve. […] The BSA granular, the BSA solution standard and Bradford reagent were all obtained from Sigma-Aldrich (Catalog Number: A7906, PO834, B6916). The buffer solution was made by adding 875 mL of 0.1 Molar sodium hydroxide (SpecSol) to 125 mL 0.1 Molar potassium dihydrogen phosphate (Merck) and its pH was adjusted to BSA isoelectric point (pH 4.9).
1. Prepare buffer by adding 875 mL of 0.1 Molar sodium hydroxide to 125 mL of 0.1 Molar potassium dihydrogen phosphate, adjusted to pH 4.9. This is the buffer solution used to make the active sample solution, the dose-response curve and the protein solution.
2. To prepare an active sample solution for initial screening, add 5 g of the active material to 50 mL of the buffer solution.
3. To prepare the protein solution, add 4 g of albumin (available from Sigma-Aldrich) from bovine serum (BSA) to 2000 mL of buffer solution.
4. To prepare the reaction solution, add 10 mL of the sample solution (step 2) to 50 mL of the protein solution.
5. To prepare the analytical solution, after filtration through a 0.45 μm membrane, 0.01 mL of reaction solution (step 4) to 3 mL of the Bradford reagent. Measure and record the absorbance at 595 nm. Determine the protein concentration by comparison to the standard curve.

[3] = compound at 10% in sodium hydroxide solution pH 8.5
[4] = mean turbidity, compound at 10% in sodium hydroxide solution pH 8.5

For `CC(O)C(=O)O.N` (stereo not shown) [Ammonium lactate], the “Physical Observation” value [1, 3] was “Liquid” and the “Turbidity pH 8.5” value [1, 4] was 1.2 NTU.
For `N.N.O=S(=O)(O)O` [Ammonium sulfate], the “Physical Observation” value [1, 3] was “Liquid” and the “Turbidity pH 8.5” value [1, 4] was 1.1 NTU.
In the case of `CC(=O)[O-].CC(=O)[O-].[Ca+2]` [Calcium acetate], the “Physical Observation” value ([1]; pH 8.5) is reported as “Liquid”, the “Turbidity pH 8.5” value ([1]; pH 8.5) is reported as 20.0 NTU and the “Precipitation (BSA)” value [2] is reported as 5%.
For `CC(O)C(=O)[O-].CC(O)C(=O)[O-].[Ca+2]` (stereo not shown) [Calcium lactate], the “Physical Observation” value [1, 3] was “Liquid” and the “Turbidity pH 8.5” value [1, 4] was 0.9 NTU.
With `[Mg+2].[O-][Cl+2]([O-])[O-].[O-][Cl+2]([O-])[O-]` [Magnesium chlorate] the “Physical Observation” value [1, 3] was “Liquid”, the “Turbidity pH 8.5” value [1, 4] was 0.4 NTU and the “Precipitation (BSA)” value [2] was 4%.
For `O.O=S(=O)([O-])[O-].[Mg+2]` [Magnesium sulfate 1•H2O], the “Physical Observation” value [1, 3] was “Liquid”, the “Turbidity pH 8.5” value [1, 4] was 0.9 NTU and the “Precipitation (BSA)” value [2] was 11%.
With `O.O.O.O.O.O=S(=O)([O-])[O-].[Mg+2]` [Magnesium sulfate 5•H2O] the “Physical Observation” value [1, 3] was “Liquid”, the “Turbidity pH 8.5” value [1, 4] was 1.5 NTU and the “Precipitation (BSA)” value [2] was 10%.
With `O.O.O.O.O.O.O.O=S(=O)([O-])[O-].[Mg+2]` [Magnesium sulfate 7•H2O] the “Physical Observation” value [1, 3] was “Liquid”, the “Turbidity pH 8.5” value [1, 4] was 1.5 NTU and the “Precipitation (BSA)” value [2] was 12%.
For `O=S(=O)([O-])[O-].[Mg+2]` [Magnesium sulfate Andros], the “Physical Observation” value [1, 3] was “Liquid”, the “Turbidity pH 8.5” value [1, 4] was 0.5 NTU and the “Precipitation (BSA)” value [2] was 8%.
With `CC(=O)[O-].[Na+]` [Sodium acetate] the “Physical Observation” value ([1]; pH 8.5) was “Liquid”, the “Turbidity pH 8.5” value ([1]; pH 8.5) was 0.9 NTU and the “Precipitation (BSA)” value [2] was 5%.
In the case of `CC(O)C(=O)[O-].[Na+]` (stereo not shown) [Sodium lactate], the “Physical Observation” value [1, 3] is reported as “Liquid” and the “Turbidity pH 8.5” value [1, 4] is reported as 0.5 NTU.
In the case of `O=S(=O)([O-])[O-].[Na+].[Na+]` [Sodium sulfate], the “Physical Observation” value ([1]; pH 8.5) is reported as “Liquid” and the “Turbidity pH 8.5” value ([1]; pH 8.5) is reported as 1.8 NTU.
For `CC(O)C(=O)[O-].CC(O)C(=O)[O-].[Zn+2]` (stereo not shown) [Zinc Lactate (food), zinc lactate], the “Physical Observation” value [1, 3] was “Gel Polymerization”, the “Turbidity pH 8.5” value [1, 4] was 525.5 NTU and the “Potential to gel polymerize in an alkaline environment” value [1] was “high potential to gel polymerize”.
For `CC(O)C(=O)[O-].CC(O)C(=O)[O-].[Zn+2]` (stereo not shown) [Zinc Lactate (pharma), zinc lactate], the “Physical Observation” value [1, 3] was “Gel Polymerization”, the “Turbidity pH 8.5” value [1, 4] was 538.0 NTU and the “Potential to gel polymerize in an alkaline environment” value [1] was “high potential to gel polymerize”.
For `O=S(=O)([O-])c1ccc(O)cc1.O=S(=O)([O-])c1ccc(O)cc1.[Zn+2]` [Zinc Phenolsulfonate, zinc phenolsulfonate], the “Physical Observation” value [1, 3] was “Liquid”, the “Turbidity pH 8.5” value [1, 4] was 1.8 NTU and the “% BSA Precipitation” value ([2]; 1% solution) was 5%. For the same compound, the “% BSA Precipitation” value ([2]; 5% solution) was −1%, the “% BSA Precipitation” value ([2]; 10% solution) was 21% and the “% BSA Precipitation” value ([2]; 15% solution) was 31%. For the same compound, the “Precipitation (BSA)” value [2] was 18% and the “Potential to be clogging agents (protein precipitation)” value ([2]; summary of Tables 2 and 3) was “demonstrated potential to be clogging agents”.
In the case of “Aluminum chlorohydrate [reference compound]”, the “% BSA Precipitation” value ([2]; 1% solution) is reported as 24%, the “% BSA Precipitation” value ([2]; 5% solution) is reported as 56% and the “% BSA Precipitation” value ([2]; 10% solution) is reported as 79%. The “% BSA Precipitation” value ([2]; 15% solution) was 95%.
In the case of “aluminum sesquichlorohydrate [Aluminium Sesquichlorohydrate, reference compound]”, the “Physical Observation” value [1, 3] is reported as “Gel Polymerization”, the “Turbidity pH 8.5” value [1, 4] is reported as 593.0 NTU and the “Precipitation (BSA)” value [2] is reported as 100%.
